According to patent publication US7799829B2, “Acyloxyalkyl carbamate prodrugs of α-amino acids, methods of synthesis and use” (XenoPort, Inc., priority 2006, dated 2010):

What was measured:
[1] = Bioavailability of α-amino acid following intracolonic administration of prodrugs in rats (intravenous α-amino acid as reference); assay type: in vivo; conditions: for colonic bioavailability of 1-aminocyclopropanecarboxylic acid: intracolonic administration of prodrug, 1-aminocyclopropanecarboxylic acid released post absorption
Method: Rats are obtained commercially and were pre-cannulated in the both the ascending colon and the jugular vein. Animals were conscious at the time of the experiment. All animals were fasted overnight and until 4 hours after dosing of an α-amino acid prodrug. An α-amino acid or the corresponding prodrug was administered as a solution (in water) directly into the colon via the cannula at a dose equivalent to about 75 mg or other appropriate dose of an α-amino acid per kg body weight. Blood samples (0.3 mL) were obtained from the jugular cannula at intervals over 8 hours and were quenched immediately by addition of sodium metabisulfite to prevent oxidation of the α-amino acid. Blood was then further quenched with methanol/perchloric acid to prevent hydrolysis of the prodrug. Blood samples were analyzed as described.
300 μL of methanol was added to 1.5 mL tubes. Rat or monkey blood (100 μL) was collected at different times into the tubes and vortexed to mix. 90 μL of blood was quenched with 300 μL methanol. 10 μL of a standard stock solution containing an α-amino acid (0.04, 0.2, 1, 5, 25, and 100 μg/mL) and 20 μL of p-chlorophenylalanine eas added to 90 μL of blood to make up a final calibration standard (0.004, 0.02, 0.1, 0.5, 2.5, and 10 μg/mL). Samples were vortexed and centrifuged at 3400 rpm for 20 min. The supernatant was analyzed by LC/MS/MS.
An API 4000 LC/MS/MS spectrometer equipped with Agilent 1100 binary pumps and a CTC HTS-PAL autosampler and an Agilent Zorbax Eclipse XBD-C8, 4.6×150 mm, 3.5 μM column was used for the analysis. The mobile phase was 0.02% heptafluorobutyric acid in water (A) and 0.02% heptafluorobutyric acid in acetonitrile (B). The flow rate was 1.0 mL/min. The gradient condition was: 5% B for 2 min, then to 10% B for 1 min. Then the mobile phase was returned to 5% B for 1.1 min. A TurboIonSpray source was used in the API 4000. The analysis was done in either negative ion mode or positive ion mode as appropriate and the MRM transition for each analyte was optimized using a standard solution. 20 μL of the samples were injected. Non-compartmental analysis was performed using WinNonlin software (v.3.1 Professional Version, Pharsight Corporation, Mountain View, Calif.) on individual animal profiles. Summary statistics on major parameter estimates was performed for Cmax (peak observed concentration following dosing), Tmax (time to maximum concentration is the time at which the peak concentration was observed), AUC(0-t) (area under the plasma concentration-time curve from time zero to last collection time, estimated using the log-linear trapezoidal method), AUC(0-∞), (area under the plasma concentration time curve from time zero to infinity, estimated using the log-linear trapezoidal method to the last collection time with extrapolation to infinity), and t1/2,z (terminal half-life).
The oral or intracolonic bioavailability (F) of an α-amino acid was determined by comparing the area under the α-amino acid concentration vs. time curve (AUC) following oral or intracolonic administration of α-amino acid or prodrug thereof with the AUC of the α-amino acid concentration vs. time curve following intravenous administration of the α-amino acid on a dose normalized basis (e.g., % Fic=AUC (following intracolonic administration of an α-amino acid prodrug)/AUC (following intravenous administration of an equivalent dose of the corresponding α-amino acid)). […] In monkeys, following, colonic administration of α-amino acid prodrug 2, the bioavailability of 1-aminocyclopropanecarboxylic acid was determined to be about 4-fold greater than after colonic administration of 1-aminocyclopropanecarboxylic acid itself (at 20 mg-eq/kg).

Molecule O=C(Cc1ccccc1)OCCOC(=O)NC1(C(=O)O)CC1 has a melting point of 142.1 to 145.6 °C.

Molecule NC1(C(=O)O)CC1 [1-aminocyclopropanecarboxylic acid, reference compound] has an AUC(0-inf) ([1]; rat, whole blood, intravenous, dosed at 20 mg-eq/kg, used as reference for bioavailability calculations, read-out: AUCinf for the intravenously administered α-amino acid) of 85900 ng·h/mL.

CC(OC(=O)NC1(C(=O)O)CC1)OC(=O)C(C)C (stereo not drawn) [Compound 1, 1-(1-Isobutyryloxy-ethoxycarbonylamino)-cyclopropanecarboxylic Acid] gave a melting point of 127 to 129.5 °C.

For CC(C)C(=O)OC(OC(=O)NC1(C(=O)O)CC1)C(C)C (stereo not drawn) [Compound 2, 1-(1-Isobutyryloxy-2-methyl-propoxycarbonylamino)-cyclopropanecarboxylic Acid], the “colonic bioavailability of 1-aminocyclopropanecarboxylic acid” value (“colonic bioavailability” for short) [1] was “substantial” and the melting point was 127.4 to 129 °C.

With Cc1ccccc1C(=O)OCCOC(=O)NC1(C(=O)O)CC1 [Compound 3, 1-{[(2-Methylphenylcarbonyloxy)ethoxy]carbonylamino}cyclopropanecarboxylic Acid] the “colonic bioavailability” value [1] was “substantial”.

In the case of O=C(NC1(C(=O)O)CC1)OCCOC(=O)c1ccccc1 [Compound 4, 1-[(Phenylcarbonyloxyethoxy)carbonylamino]cyclopropanecarboxylic Acid], the “colonic bioavailability” value [1] is reported as “substantial” and the melting point is reported as 173.8 to 175.8 °C.

CC(C)CC(=O)OC(C)OC(=O)NC1(C(=O)O)CC1 (stereo not drawn) [Compound 5, 1-[1-(3-Methyl-butyryloxy)-ethoxycarbonylamino]-cyclopropanecarboxylic Acid] showed a melting point of 116.6 to 119.1 °C.

In the case of CCCC(=O)OC(C)OC(=O)NC1(C(=O)O)CC1 (stereo not drawn) [Compound 7, 1-(1-Butyryloxy-ethoxycarbonylamino)-cyclopropanecarboxylic Acid], the melting point is reported as 90.4 to 93.4 °C.

With CCCCC(=O)OC(C)OC(=O)NC1(C(=O)O)CC1 (stereo not drawn) [Compound 8, 1-(1-Pentanoyloxy-ethoxycarbonylamino)-cyclopropanecarboxylic Acid] the melting point was 148 to 151.1 °C.

With O=C(NC1(C(=O)O)CC1)OCCOC(=O)C1CCCCC1 [Compound 10, 1-[(Cyclohexylcarbonyloxyethoxy)carbonylamino]cyclopropanecarboxylic Acid] the melting point was 123.6 to 125.3 °C.

For CC(C)C(OC(=O)NC1(C(=O)O)CC1)OC(=O)C1CCCCC1 (stereo not drawn) [Compound 11, 1-[(1-Cyclohexylcarbonyloxy-2-methylpropoxy)carbonylamino]cyclopropanecarboxylic Acid], the “colonic bioavailability” value [1] was “substantial” and the melting point was 156 to 158.5 °C.

With CC(C)C(OC(=O)NC1(C(=O)O)CC1)OC(=O)c1ccccc1 (stereo not drawn) [Compound 12, 1-[(2-Methyl-1-phenylcarbonyloxypropoxy)carbonylamino]cyclopropanecarboxylic Acid] the “colonic bioavailability” value [1] was “substantial”.

For CCCCCCC(=O)OCCOC(=O)NC1(C(=O)O)CC1 [Compound 13, 1-[(Heptanoyloxyethoxy)carbonylamino]cyclopropanecarboxylic Acid], the melting point was 112.6 to 113.2 °C.

Molecule COc1ccc(C(=O)OCCOC(=O)NC2(C(=O)O)CC2)cc1OC [Compound 14, 1-{[(3,4-Dimethoxyphenylcarbonyloxy)ethoxy]carbonylamino}cyclopropanecarboxylic Acid] has a melting point of 171.8 to 173.6 °C.

With O=C(/C=C/c1ccccc1)OCCOC(=O)NC1(C(=O)O)CC1 [Compound 16, 1-{[((2E)-3-Phenylprop-2-enoyloxy)ethoxy]carbonylamino}cyclopropanecarboxylic Acid] the “colonic bioavailability” value [1] was “substantial” and the melting point was 169.3 to 172.2 °C.

O=C(CCc1ccccc1)OCCOC(=O)NC1(C(=O)O)CC1 [Compound 17, 1-{[(3-Phenylpropanoyloxy)ethoxy]carbonylamino}cyclopropanecarboxylic Acid] showed a melting point of 132.9 to 134.4 °C.

For CC(C)C(OC(=O)/C=C/c1ccccc1)OC(=O)NC1(C(=O)O)CC1 (stereo not drawn) [Compound 18, 1-{[1-((2E)-3-Phenylprop-2-enoyloxy)-2-methylpropoxy]carbonylamino}cyclopropanecarboxylic Acid], the “colonic bioavailability” value [1] was “substantial” and the melting point was 147.8 to 150.2 °C.

Molecule Cc1ccc(C(=O)OCCOC(=O)NC2(C(=O)O)CC2)cc1 [Compound 21, 1-{[(4-Methylphenylcarbonyloxy)ethoxy]carbonylamino}cyclopropanecarboxylic Acid] has a melting point of 177.7 to 182.5 °C.

For CC(C)C(=O)OC(OC(=O)NC1(C(=O)[O-])CC1)C(C)C.[Na+] (stereo not drawn) [Compound 23, 1-{[2-Methyl-1-(2-methylpropanoyloxy)propoxy]carbonylamino}Sodium Cyclopropanoate], the “colonic bioavailability” value [1] was “substantial”.
